Legend:
MOCS1-deficient mice [1] = experiment: Water labyrinth learning test; type: in vivo
Protocol: FIG. 7: Ability to train precursor Z-treated MOCS1-deficient mice in a water labyrinth. The values represented a cross section of six wildtype- (wt, black bars) and six precursor Z treated MOCS1-deficient mice (MOCS1 ^−/−, white bars). […] C, time (of a total of 120 seconds), spent in the correct sector (without platform), which were learned in passes A and B.
Avoidance of light was tested in the light/dark box, in which the animals were placed into the light area and the time was determined until the animals sought out the darker area. […] The results were compared with wild-type controls. The mice were sequentially introduced into all four sectors and the time was measured until the animals found and climbed onto the platform (FIG. 7). […] In a second test series, the average swim time was reduced to 20-25% of the first test both in the “knockout” mice as well as with the control animals. In a third test series, the platform was removed and the time was measured that the mice spent in the “correct” sector—the sector that previously contained the platform. Both groups spent approximately 50% of the time in the correct sector.

MOCS1-deficient mice [2] = experiment: Cessation or delayed initiation of precursor Z treatment; type: in vivo
Description: In order to test whether the treatment with precursor Z can be halted after a certain developmental stage, we stopped the injection of precursor Z in homozygouse mutants on days 1 (n=3), 12 (n=4), 26-28 (n=3) and 64-68 (n=2) after birth. A single injection of precursor Z after day one led to death after 15-18 days. […] At the age of 26-28 days, in which the previously described critical period falls, the cessation of administration of precursor Z led to death within 4-7 days. Cessation after 64-68 days led to reduced exploration of the environment after 7 days and to death after 9-10 days. In order to successfully correct the phenotype, the administration with precursor Z had to be initiated within 5 days following birth.

Total-MPT inclusive Moco = experiment: MPT content in liver after last injection; type: in vivo, mice
Protocol: (§1) FIG. 6: Restoration of the MPT-biosynthesis in vitro and in vivo. (a) In vitro restoration of MOCS1-deficient liver extracts with precursor Z. Protein raw extract of a five day old MOCS1^−/− were incubated (1 h) with the indicated amounts of purified precursor Z per mg protein. Restoration of MPT-synthesis was measured by means of nit-1 reconstitution assay. (b-d) Biochemical analysis of precursor Z treated MOCS1-deficient animals. The mice were twice weekly injected with increasing amounts of precursor Z, beginning with 2 μg after birth and up to 8 μg after weaning. Between the days 25-55 after birth the treatment was stopped. On day 0 (4 hours after the last injection), 1, 4 and 7 respectively, two mice were sacrificed. Two liver samples of each animal were removed and separately further processed. Each value in the figure was thus determined four times. […]
(§2) In homozygote MOCS1^−/−-animals, in which precursor Z was injected regularly and which appeared normal with regard to weight, appearance and behavior, the treatment was halted and the animals were sacrificed sequentially at days 0, 1, 4 and 7 after the last injection in order to determine the MPT-content and the Mo-enzyme activity in the liver (FIG. 6b-d). Due to the rapid conversion of the administered precursor Z to MPT, the highest MPT-value was measured on the day of the injection (16±1% of the wildtype; FIG. 6b). […]

sulphite oxidase = experiment: Sulphite oxidase activity in liver after last injection; type: in vivo, mice
Protocol: as §1, §2

xanthine dehydrogenase = experiment: Xanthine dehydrogenase activity in liver after last injection; type: in vivo, mice
Protocol: as §1, §2

MOCS1-deficient mice [3] = experiment: Morphologic examination of tissues of treated knockout mice; type: in vivo
Protocol: FIG. 8: Morphologic comparison of kidneys (a, b) and brain sections (c,d) of wildtype- (a,c) and precursor Z-treated MOCS1-deficient mice, (b,d). Treatment was with 2-4 μg each third day. (a) Regular kidneys with normal glomerulus (arrow), characteristic developed tubuli and thin (narrow) interstices (200×). […] Proximal tubuli were extended (28+/−19%). […] The glomerulus is normal (arrow). (c,d) Corresponding coronal brain sections (Cx, Cortex; Hi, Hippocampus; Str, Striatum; Th, Thalamus; Hy, Hypothalamus) of wildtype-(c) and precursor Z-treated MOCS1^−/− mice (d).
Tissue from heart, skeletal muscle, lung, pancreas, thyroid, spleen and liver (data not shown) as well as brain (FIG. 8c-d) were examined.

MOCS1-deficient mice [4] = experiment: Xanthin and uric acid in urine of treated knockout mice; type: in vivo; settings: data not shown
[5] = low pH-values; cited from earlier work

SMILES: Nc1nc2c(c(=O)[nH]1)N[C@@H]1[C@H](N2)O[C@@H]2COP(=O)(O)O[C@@H]2C1(O)O [precursor Z]
- water labyrinth: average swim time as % of the first test (MOCS1-deficient mice [1]; second test series): 20-25%
- water labyrinth: time spent in the correct sector (MOCS1-deficient mice [1]; third test series, platform removed): approximately 50%
- death after cessation (MOCS1-deficient mice [2]; cessation after 64-68 days): 9 to 10 days
- onset of reduced exploration of the environment after cessation (MOCS1-deficient mice [2]; cessation after 64-68 days): 7 days
- death after cessation (MOCS1-deficient mice [2]; cessation at the age of 26-28 days): 4 to 7 days
- death after the last injection (MOCS1-deficient mice [2]; cessation on day 12): 7 to 9 days
- onset of limited exploration of the environment after the last injection (MOCS1-deficient mice [2]; cessation on day 12): 6 days
- improvement of the phenotype or the life expectancy (MOCS1-deficient mice [2]; initiation of treatment after 7 or 10 days): no significant improvement
- time after birth within which administration had to be initiated to correct the phenotype (MOCS1-deficient mice [2]; mouse, in vivo): ≤ 5 days
- time of death (MOCS1-deficient mice [2]; single injection, treatment stopped on day 1): 15 to 18 days
- MPT-value in liver (Total-MPT inclusive Moco; day of the injection (day 0, 4 hours after the last injection)): 16±1 % of the wildtype
- MPT-content in liver (Total-MPT inclusive Moco; within the following four days after last injection): less than 4 % of the wildtype value
- sulphite oxidase activity, course (sulphite oxidase; day 0 to day 1 after the last injection): rise
- sulphite oxidase activity (% of wildtype) versus reconstituted MPT-content (sulphite oxidase; liver): higher than the reconstituted MPT-content
- xanthin dehydrogenase activity, course (xanthine dehydrogenase; after day 1): rapidly decreased
- xanthin-dehydrogenase activity (% of wildtype) versus reconstituted MPT-content (xanthine dehydrogenase; liver): higher than the reconstituted MPT-content
- enlargement of the matrix of the interstices (MOCS1-deficient mice [3]; 2-4 μg each third day): 13+/−13%
- extension of proximal tubuli (MOCS1-deficient mice [3]; 2-4 μg each third day): 28+/−19%
- kidney stones (MOCS1-deficient mice [3]; 2-4 μg each third day): numerous stones in the tubuli
- kidney morphology (MOCS1-deficient mice [3]; beginning day 20 after birth): bilateral abnormal kidneys
- morphology besides kidney (MOCS1-deficient mice [3]; heart, skeletal muscle, lung, pancreas, thyroid, spleen, liver, brain): no further morphologic abnormality
- uric acid in the urine (MOCS1-deficient mice [4]): not measurable
- xanthin in the urine (MOCS1-deficient mice [4]): very high
- estimated half time [5]: several hours

From patent publication US7504095B2, “Method for obtaining precursor Z and use thereof for the production of a means for therapy of human molybdenum cofactor deficiency” (Technische Universitaet Braunschweig, priority 2004, dated 2009)
